Several values for one entry are separate records, joined by “and”; a condition that tells them apart may be missing. Equal entries are not always repeated. Inconclusive results and toxic doses are left out. The calls were made as follows: active = survival T/C of 150% or more; inactive = T/C below 125% in these data.
Tested on: CD2F1 mice, L1210 leukemia ip, survival T/C
Experiment: NCI In Vivo Anticancer Drug Screen. Data for tumor model L1210 Leukemia (intraperitoneal) in CD2F1 (CDF1) mice
Settings: higher = longer survival
Outline: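 Activity against a transplanted murine tumor was judged by comparing the compound group with a vehicle group. The outcome in the treated animals was divided by that in the controls.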

[1] = endpoint: mean survival time, dose: 100.0 mg/kg/injection, schedule: Q04DX003 (ip), vehicle: saline with Tween-80
[2] = endpoint: mean survival time, dose: 200.0 mg/kg/injection, schedule: Q04DX003 (ip), vehicle: saline with Tween-80
[3] = endpoint: mean survival time, dose: 100.0 mg/kg/injection, schedule: Q04DX003 (ip), vehicle: saline
[4] = endpoint: mean survival time, dose: 200.0 mg/kg/injection, schedule: Q04DX003 (ip), vehicle: saline
[5] = endpoint: mean survival time, dose: 400.0 mg/kg/injection, schedule: Q04DX003 (ip), vehicle: saline
[6] = endpoint: mean survival time, dose: 100.0 mg/kg/injection, schedule: Q01DX009 (ip), vehicle: saline with Tween-80
[7] = endpoint: mean survival time, dose: 100.0 mg/kg/injection, schedule: Q04DX003 (ip), vehicle: saline sonified
[8] = endpoint: mean survival time, dose: 200.0 mg/kg/injection, schedule: Q01DX009 (ip), vehicle: saline with Tween-80
[9] = endpoint: mean survival time, dose: 50.0 mg/kg/injection, schedule: Q01DX009 (ip), vehicle: saline with Tween-80
[10] = endpoint: mean survival time, dose: 400.0 mg/kg/injection, schedule: Q04DX003 (ip), vehicle: saline with Tween-80

Measured: T/C

C1CCCCCC2=C(CCCC1)CCCO2
inactive: endpoint: mean survival time, dose: 6.25 mg/kg/injection, schedule: Q04DX003 (ip), vehicle: saline with Tween-80 91 % of control | endpoint: mean survival time, dose: 12.5 mg/kg/injection, schedule: Q04DX003 (ip), vehicle: saline with Tween-80 91 % of control | endpoint: mean survival time, dose: 25.0 mg/kg/injection, schedule: Q04DX003 (ip), vehicle: saline with Tween-80 86 % of control | endpoint: mean survival time, dose: 50.0 mg/kg/injection, schedule: Q04DX003 (ip), vehicle: saline with Tween-80 89 % of control | [1] 94 % of control | [2] 94 % of control

CCCCC(O)C(=O)O (stereo not drawn)
inactive: endpoint: mean survival time, dose: 75.0 mg/kg/injection, schedule: Q01DX001 (ip), vehicle: saline 94 % of control | endpoint: mean survival time, dose: 150.0 mg/kg/injection, schedule: Q01DX001 (ip), vehicle: saline 96 % of control

CCCNC(C)=O
inactive: [3] 97 % of control | [4] 97 % of control | [5] 100 % of control

N#CCSc1nc(N)nc2nc[nH]c12
inactive: [6] 103 % of control | [7] 102 % of control | [8] 116 % of control | endpoint: mean survival time, dose: 200.0 mg/kg/injection, schedule: Q04DX003 (ip), vehicle: saline sonified 105 % of control | endpoint: mean survival time, dose: 400.0 mg/kg/injection, schedule: Q04DX003 (ip), vehicle: saline sonified 107 % of control

O=C(OCC1OC(n2nc(N3CCOCC3)c(=O)[nH]c2=O)C(OC(=O)c2ccccc2)C1OC(=O)c1ccccc1)c1ccccc1 (stereo not drawn)
inactive: endpoint: mean survival time, dose: 12.5 mg/kg/injection, schedule: Q01DX005 (ip), vehicle: distilled water + Tween-80 98 % of control | endpoint: mean survival time, dose: 25.0 mg/kg/injection, schedule: Q01DX005 (ip), vehicle: distilled water + Tween-80 103 % of control | endpoint: mean survival time, dose: 50.0 mg/kg/injection, schedule: Q01DX005 (ip), vehicle: distilled water + Tween-80 92 % of control

CCOC/C(O)=C(\C#N)c1cccc(Cl)c1
inactive: endpoint: mean survival time, dose: 25.0 mg/kg/injection, schedule: Q01DX001 (ip), vehicle: other 105 % of control | endpoint: mean survival time, dose: 50.0 mg/kg/injection, schedule: Q01DX001 (ip), vehicle: other 102 % of control | endpoint: mean survival time, dose: 100.0 mg/kg/injection, schedule: Q01DX001 (ip), vehicle: other 102 % of control | endpoint: mean survival time, dose: 200.0 mg/kg/injection, schedule: Q01DX001 (ip), vehicle: other 101 % of control

CCOC(=O)C(CC)(OC(C)=O)C(=O)C=O (stereo not drawn)
inactive: endpoint: mean survival time, dose: 100.0 mg/kg/injection, schedule: Q01DX001 (ip), vehicle: saline 108 % of control | endpoint: mean survival time, dose: 200.0 mg/kg/injection, schedule: Q01DX001 (ip), vehicle: saline 112 % of control | endpoint: mean survival time, dose: 400.0 mg/kg/injection, schedule: Q01DX001 (ip), vehicle: saline 116 % of control

CCCCCCCC(O)CCCCCCC
inactive: endpoint: mean survival time, dose: 100.0 mg/kg/injection, schedule: Q01DX009 (ip), vehicle: other 101 % of control | endpoint: mean survival time, dose: 100.0 mg/kg/injection, schedule: Q04DX003 (ip), vehicle: other 95 % of control | endpoint: mean survival time, dose: 200.0 mg/kg/injection, schedule: Q01DX009 (ip), vehicle: other 98 % of control | endpoint: mean survival time, dose: 200.0 mg/kg/injection, schedule: Q04DX003 (ip), vehicle: other 97 % of control | endpoint: mean survival time, dose: 400.0 mg/kg/injection, schedule: Q01DX009 (ip), vehicle: other 95 % of control | endpoint: mean survival time, dose: 400.0 mg/kg/injection, schedule: Q04DX003 (ip), vehicle: other 100 % of control

Cc1cc(C)[nH]c(=O)c1
inactive: endpoint: mean survival time, dose: 100.0 mg/kg/injection, schedule: Q01DX009 (ip), vehicle: saline 106 % of control | endpoint: mean survival time, dose: 200.0 mg/kg/injection, schedule: Q01DX009 (ip), vehicle: saline 106 % of control | endpoint: mean survival time, dose: 400.0 mg/kg/injection, schedule: Q01DX009 (ip), vehicle: saline 106 % of control

CN1C(=O)CN(CCN2CC(=O)N(c3ccccc3)C2=S)C1=S
inactive: [9] 93 % of control | [6] 93 % of control | [8] 89 % of control

COC(=O)C1=CCN(C)CC1
inactive: [3] 97 % of control | [4] 96 % of control | [5] 90 % of control

C[CH2][Ge]([CH2]C)[CH2]C.C[CH2][Ge]([CH2]C)[CH2]C.C[CH2][Ge]([CH2]C)[O][Ge]([CH2]C)[CH2]C
inactive: endpoint: mean survival time, dose: 6.25 mg/kg/injection, schedule: Q01DX009 (ip), vehicle: saline with Tween-80 97 % of control and 106 % of control | endpoint: mean survival time, dose: 12.5 mg/kg/injection, schedule: Q01DX009 (ip), vehicle: saline with Tween-80 96 % of control and 104 % of control | endpoint: mean survival time, dose: 25.0 mg/kg/injection, schedule: Q01DX009 (ip), vehicle: saline with Tween-80 97 % of control and 112 % of control | [9] 104 % of control and 112 % of control | [6] 109 % of control

CC(C)(C)C(=O)CC(=O)C(C)(C)C.CC(C)(C)C(=O)CC(=O)C(C)(C)C.CC(C)(C)C(=O)CC(=O)C(C)(C)C.[Y]
inactive: [1] 97 % of control | [2] 95 % of control | [10] 91 % of control

CC1(C)C(N2CCOCC2)C(c2ccccc2)S1(=O)=O (stereo not drawn)
inactive: endpoint: mean survival time, dose: 100.0 mg/kg/injection, schedule: Q01DX001 (ip), vehicle: saline with Tween-80 101 % of control | endpoint: mean survival time, dose: 200.0 mg/kg/injection, schedule: Q01DX001 (ip), vehicle: saline with Tween-80 105 % of control | endpoint: mean survival time, dose: 400.0 mg/kg/injection, schedule: Q01DX001 (ip), vehicle: saline with Tween-80 105 % of control

N#C[Se-].c1ccc([Te+](c2ccccc2)c2ccccc2)cc1
inactive: endpoint: median survival time, dose: 1.56 mg/kg/injection, schedule: Q01DX009 (ip), vehicle: Klucel (hydroxypropylcellulose) (HPC) 109 % of control | endpoint: median survival time, dose: 3.12 mg/kg/injection, schedule: Q01DX009 (ip), vehicle: Klucel (hydroxypropylcellulose) (HPC) 104 % of control | endpoint: median survival time, dose: 6.25 mg/kg/injection, schedule: Q01DX009 (ip), vehicle: Klucel (hydroxypropylcellulose) (HPC) 105 % of control | endpoint: median survival time, dose: 12.5 mg/kg/injection, schedule: Q01DX009 (ip), vehicle: Klucel (hydroxypropylcellulose) (HPC) 103 % of control

Nc1ccccc1Sc1ccncc1[N+](=O)[O-]
inactive: [6] 96 % of control | [1] 90 % of control | [8] 100 % of control | [2] 95 % of control | endpoint: mean survival time, dose: 400.0 mg/kg/injection, schedule: Q01DX009 (ip), vehicle: saline with Tween-80 101 % of control | [10] 97 % of control

O=C(O)CCOc1cc(F)c(F)cc1F
inactive: endpoint: mean survival time, dose: 100.0 mg/kg/injection, schedule: Q04DX002 (ip), vehicle: saline with Tween-80 101 % of control | endpoint: mean survival time, dose: 200.0 mg/kg/injection, schedule: Q04DX002 (ip), vehicle: saline with Tween-80 90 % of control | endpoint: mean survival time, dose: 400.0 mg/kg/injection, schedule: Q04DX002 (ip), vehicle: saline with Tween-80 97 % of control

S=C(Nc1ccccc1)N1CCC(CCCC2CCN(C(=S)Nc3ccccc3)CC2)CC1
inactive: [1] 91 % of control | [2] 88 % of control

CCN(CC)c1ccc(C)cc1Cl
inactive: [7] 102 % of control
